Results reported in patent US5041355A, “High contrast photographic element including an aryl sulfonamidophenyl hydrazide containing ethyleneoxy groups” (Eastman Kodak Company, priority 1990, dated 1991).

Experiment: relative speed and contrast of silver halide coatings containing nucleator and incorporated booster, exposed and processed in developer
Conditions: for Relative Speed: 1 minute at 35° C., developer pH 10.5; for lower scale activity (speed): in words
Method: Each coating used in the following examples was prepared on a polyester support, using a mono-dispersed 0.24 μm AgBrI (2.5 mol % iodide) iridium-doped emulsion at 3.51 g/m^2 Ag, 2.54 g gel/m^2, and 1.08 g latex/m^2 where the latex is a copolymer of methyl acrylate, 2-acrylamido-2-methylpropane sulfonic acid, and 2-acetoacetoxyethylmethylacrylate. The silver halide emulsion was spectrally sensitized with 214 mg/Ag mol of anhydro-5,5'-dichloro-9-ethyl-3,3'-di-(3-sulfopropyl)oxacarbocyanine hydroxide, triethylene salt and the emulsion layer was overcoated with gelatin containing polymethylmethacrylate beads. The nucleating agent was added as a methanol solution to the emulsion melts at a level in millimoles (mM) per mole of silver as hereinafter indicated. An "incorporated booster" was added as a methanol solution in an amount of 64.6 milligrams per square meter of photographic element. The compound employed as the "incorporated booster" is represented by the formula: [drawing 8] where Pr represents n-propyl. Coatings were exposed for five seconds to a 3000° K. tungsten light source and processed for 1 minute at 35° C. in the developer solution.
To prepare the developer solution, a concentrate was prepared from the following ingredients:
The concentrate was diluted at a ratio of one part of concentrate to two parts of water to produce a working strength developing solution with a pH of 10.5.

[1] = concentration of nucleator 1.0 mM/Ag mole
[2] = concentration of nucleator 2.0 mM/Ag mole

Structure (SMILES)	Relative Speed [1]	Relative Speed [2]	speed compared with Test 2 (Test 7 (1.0 mM/Ag mole) versus Test 2 (2.0 mM/Ag mole))	lower scale activity (speed)	Relative Speed (concentration of nucleator 1.9 mM/Ag mole)
CCCCCCCCOCCOCCOc1ccc(S(=O)(=O)Nc2ccc(NNC=O)cc2)cc1 [reference compound]	87	93			
CCCCCCCOCCOCCOCCOCCOCCOCCOCCOCCOCCOc1ccc(S(=O)(=O)Nc2ccc(NNC=O)cc2)cc1 [hydrazide I-4]	105	110	somewhat greater speed	beneficial effects upon lower scale activity (speed)	
CC(C)c1ccc(C(C)C)c(S(=O)(=O)Nc2ccc(NNC=O)cc2)c1 [reference compound]	87	100			
CCCCCOCCOCCOCCOCCOc1ccc(S(=O)(=O)Nc2ccc(NNC=O)cc2)cc1OCCOCCOCCOCCOCCCCC [hydrazide I-8]	98			beneficial effects upon lower scale activity (speed)	105
